Laboratory results published in patent US9340590B2 (priority 2011, dated 2016).
Positions of bridges follow the written chain, without caps; N, C: chain ends. Residues, ends and D or L forms follow the SMILES beside them.

Assays:
Experiment in all cases: cell-based
hNav1.7 = hNav1.7 (Homo sapiens, UniProt Q15858); format: cell-based; conditions: IonWorks Quattro, use-dependent block, hNav1.7; read-out: IWQ Use Nav1.7
hNav1.5 = hNav1.5 (Homo sapiens, UniProt Q14524); conditions: IonWorks Quattro, use-dependent block, hNav1.5; read-out: IWQ Use Nav1.5
hNav1.3 = hNav1.3 (Homo sapiens, UniProt Q9NY46); conditions: IonWorks Quattro, use-dependent block, hNav1.3; read-out: IWQ Use Nav1.3
hNav1.3, sequence (Q9NY46 whole entry, looked up): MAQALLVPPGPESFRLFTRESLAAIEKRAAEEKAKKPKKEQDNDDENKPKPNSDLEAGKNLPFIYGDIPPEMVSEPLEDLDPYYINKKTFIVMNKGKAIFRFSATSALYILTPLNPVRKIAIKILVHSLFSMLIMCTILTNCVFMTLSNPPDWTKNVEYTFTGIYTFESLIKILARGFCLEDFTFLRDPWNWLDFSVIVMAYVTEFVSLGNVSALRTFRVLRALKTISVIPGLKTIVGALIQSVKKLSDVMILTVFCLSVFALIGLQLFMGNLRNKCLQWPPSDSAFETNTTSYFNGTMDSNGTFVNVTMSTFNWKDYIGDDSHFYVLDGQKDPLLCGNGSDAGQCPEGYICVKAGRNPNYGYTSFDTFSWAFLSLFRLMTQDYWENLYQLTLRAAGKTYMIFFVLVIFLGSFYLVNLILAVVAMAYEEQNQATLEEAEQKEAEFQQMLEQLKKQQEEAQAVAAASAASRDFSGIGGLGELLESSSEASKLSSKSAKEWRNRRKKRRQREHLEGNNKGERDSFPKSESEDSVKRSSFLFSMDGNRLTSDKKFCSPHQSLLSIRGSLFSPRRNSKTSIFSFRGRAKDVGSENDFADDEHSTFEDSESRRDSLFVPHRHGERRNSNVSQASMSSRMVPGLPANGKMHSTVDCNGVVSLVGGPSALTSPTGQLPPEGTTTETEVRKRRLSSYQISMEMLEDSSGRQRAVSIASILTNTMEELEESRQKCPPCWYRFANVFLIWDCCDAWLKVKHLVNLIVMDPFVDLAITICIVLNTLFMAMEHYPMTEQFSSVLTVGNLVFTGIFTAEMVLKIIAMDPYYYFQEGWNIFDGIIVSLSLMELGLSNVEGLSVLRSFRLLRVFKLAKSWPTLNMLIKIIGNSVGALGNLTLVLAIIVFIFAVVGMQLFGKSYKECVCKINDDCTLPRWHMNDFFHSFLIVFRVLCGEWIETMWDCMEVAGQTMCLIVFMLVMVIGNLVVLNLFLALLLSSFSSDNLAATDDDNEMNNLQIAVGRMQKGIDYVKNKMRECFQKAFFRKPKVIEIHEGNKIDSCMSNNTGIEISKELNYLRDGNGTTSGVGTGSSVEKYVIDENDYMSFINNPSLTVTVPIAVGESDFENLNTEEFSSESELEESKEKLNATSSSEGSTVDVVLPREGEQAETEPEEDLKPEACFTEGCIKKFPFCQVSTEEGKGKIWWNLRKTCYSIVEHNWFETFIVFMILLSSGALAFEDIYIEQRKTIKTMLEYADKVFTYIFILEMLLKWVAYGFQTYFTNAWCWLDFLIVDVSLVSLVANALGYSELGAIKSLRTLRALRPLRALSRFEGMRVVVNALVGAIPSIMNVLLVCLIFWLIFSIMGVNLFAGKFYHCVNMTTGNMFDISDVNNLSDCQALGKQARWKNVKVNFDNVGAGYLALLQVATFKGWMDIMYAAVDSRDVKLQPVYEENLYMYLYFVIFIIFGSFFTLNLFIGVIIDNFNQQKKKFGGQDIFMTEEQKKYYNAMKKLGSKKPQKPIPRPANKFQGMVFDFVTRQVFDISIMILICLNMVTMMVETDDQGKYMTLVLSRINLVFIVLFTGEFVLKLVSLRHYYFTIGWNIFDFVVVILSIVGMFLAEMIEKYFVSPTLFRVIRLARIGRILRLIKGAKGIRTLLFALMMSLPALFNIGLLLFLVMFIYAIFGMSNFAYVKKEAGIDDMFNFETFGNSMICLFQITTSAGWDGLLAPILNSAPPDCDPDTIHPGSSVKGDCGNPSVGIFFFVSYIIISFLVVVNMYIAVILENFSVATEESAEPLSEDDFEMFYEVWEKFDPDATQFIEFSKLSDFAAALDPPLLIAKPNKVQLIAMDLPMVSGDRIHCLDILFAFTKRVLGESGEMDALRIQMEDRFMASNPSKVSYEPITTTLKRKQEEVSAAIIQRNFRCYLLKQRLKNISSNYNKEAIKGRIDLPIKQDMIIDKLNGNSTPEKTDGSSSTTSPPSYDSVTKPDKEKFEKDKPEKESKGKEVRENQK

hNav1.7, sequence (Q15858 whole entry, looked up): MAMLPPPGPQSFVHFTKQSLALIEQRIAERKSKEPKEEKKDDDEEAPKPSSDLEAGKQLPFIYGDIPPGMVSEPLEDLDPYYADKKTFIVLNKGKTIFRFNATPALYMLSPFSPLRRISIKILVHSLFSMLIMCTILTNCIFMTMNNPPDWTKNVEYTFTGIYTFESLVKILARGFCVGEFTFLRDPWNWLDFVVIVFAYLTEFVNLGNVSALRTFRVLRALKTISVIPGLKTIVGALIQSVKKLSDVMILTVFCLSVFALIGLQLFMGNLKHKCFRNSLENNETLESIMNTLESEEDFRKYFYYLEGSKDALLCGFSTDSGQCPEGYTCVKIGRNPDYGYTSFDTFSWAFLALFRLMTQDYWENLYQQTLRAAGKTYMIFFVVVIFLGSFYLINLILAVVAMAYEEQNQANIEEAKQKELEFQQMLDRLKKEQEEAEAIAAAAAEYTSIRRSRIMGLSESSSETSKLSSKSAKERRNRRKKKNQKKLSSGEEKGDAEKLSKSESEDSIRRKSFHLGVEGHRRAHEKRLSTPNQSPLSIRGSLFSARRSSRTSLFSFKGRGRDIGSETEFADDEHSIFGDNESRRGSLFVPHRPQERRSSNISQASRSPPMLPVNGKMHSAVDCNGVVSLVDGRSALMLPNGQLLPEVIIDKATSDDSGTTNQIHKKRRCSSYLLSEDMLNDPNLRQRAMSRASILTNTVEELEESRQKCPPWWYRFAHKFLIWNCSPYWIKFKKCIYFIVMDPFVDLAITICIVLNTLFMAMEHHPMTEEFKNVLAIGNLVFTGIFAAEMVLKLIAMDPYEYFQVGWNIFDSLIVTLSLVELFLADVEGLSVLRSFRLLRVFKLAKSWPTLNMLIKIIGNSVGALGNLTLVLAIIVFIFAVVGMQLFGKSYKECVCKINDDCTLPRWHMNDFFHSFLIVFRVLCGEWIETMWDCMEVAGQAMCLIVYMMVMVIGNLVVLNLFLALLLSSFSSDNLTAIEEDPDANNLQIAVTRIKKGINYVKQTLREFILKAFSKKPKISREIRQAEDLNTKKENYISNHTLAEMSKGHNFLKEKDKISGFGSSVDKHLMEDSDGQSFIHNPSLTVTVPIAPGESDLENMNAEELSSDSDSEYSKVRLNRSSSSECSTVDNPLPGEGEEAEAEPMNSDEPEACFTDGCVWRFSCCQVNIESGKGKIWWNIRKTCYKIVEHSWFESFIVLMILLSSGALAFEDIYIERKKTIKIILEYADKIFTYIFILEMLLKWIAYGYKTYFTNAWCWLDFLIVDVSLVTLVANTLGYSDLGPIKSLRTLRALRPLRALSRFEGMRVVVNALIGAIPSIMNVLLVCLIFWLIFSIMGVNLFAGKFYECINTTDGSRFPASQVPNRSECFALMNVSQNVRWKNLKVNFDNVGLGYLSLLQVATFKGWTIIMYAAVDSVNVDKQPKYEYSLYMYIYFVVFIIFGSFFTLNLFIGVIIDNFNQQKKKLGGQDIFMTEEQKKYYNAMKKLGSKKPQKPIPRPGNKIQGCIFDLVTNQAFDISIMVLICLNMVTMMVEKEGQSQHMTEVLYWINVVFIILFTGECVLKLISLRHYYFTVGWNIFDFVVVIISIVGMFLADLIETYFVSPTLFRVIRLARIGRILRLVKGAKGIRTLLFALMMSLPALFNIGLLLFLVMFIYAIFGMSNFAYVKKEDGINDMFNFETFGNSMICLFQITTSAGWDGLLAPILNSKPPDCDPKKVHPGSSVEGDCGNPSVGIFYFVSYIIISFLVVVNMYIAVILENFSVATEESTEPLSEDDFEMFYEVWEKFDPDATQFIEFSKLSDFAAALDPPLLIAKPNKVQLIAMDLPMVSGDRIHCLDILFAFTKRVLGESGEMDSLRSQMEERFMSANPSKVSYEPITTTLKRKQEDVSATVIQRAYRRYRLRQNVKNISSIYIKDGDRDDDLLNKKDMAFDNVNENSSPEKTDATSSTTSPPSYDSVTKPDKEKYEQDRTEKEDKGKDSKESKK

| SMILES | IC50 (hNav1.7) | IC50 (hNav1.5) | IC50 (hNav1.3) |
| --- | --- | --- | --- |
| CC[C@H](C)[C@@H]1NC(=O)[C@@H]2CSSC[C@@H]3NC(=O)[C@H](C(C)C)NC(=O)[C@H](CC(C)C)NC(=O)[C@H](CC(N)=O)NC(=O)[C@@H]4CCCN4C(=O)[C@H](CCCNC(=N)N)NC(=O)[C@H](CSSC[C@H](NC(=O)[C@@H](N)CC(=O)O)C(=O)N[C@@H](CC(C)C)C(=O)NCC(=O)N[C@@H](C)C(=O)N[C@@H](CCSC)C(=O)N[C@@H](CCCNC(=N)N)C(=O)N[C@@H](CCCCN)C(=O)N2)NC(=O)[C@H](CSSC[C@@H](C(=O)N[C@@H](CCCCN)C(=O)N[C@@H](C)C(=O)N[C@H](C(=O)N[C@@H](Cc2ccccc2)C(N)=O)C(C)C)NC(=O)[C@H](Cc2c[nH]c4ccccc24)NC(=O)[C@H](CCCCN)NC(=O)[C@H](Cc2c[nH]cn2)NC(=O)[C@H]([C@@H](C)O)NC(=O)[C@H](CCCNC(=N)N)NC(=O)[C@H](CO)NC3=O)NC(=O)[C@H](CCCCN)NC(=O)[C@H](CC(=O)O)NC(=O)[C@H](CC(N)=O)NC(=O)[C@H](CC(=O)O)NC(=O)[C@@H]2CCCN2C1=O [compound 432] (H-DCLGAMRKCIPDNDKCCRPNLVCSRTHKWCKAVF-NH2; disulfide 2-17, 9-23, 16-30) | > 5 µM | > 5 µM | > 5 µM |
| CC[C@H](C)[C@@H]1NC(=O)[C@@H]2CSSC[C@@H]3NC(=O)[C@H](C(C)C)NC(=O)[C@H](CC(C)C)NC(=O)[C@H](CC(N)=O)NC(=O)[C@@H]4CCCN4C(=O)[C@H](CCCNC(=N)N)NC(=O)[C@H](CSSC[C@H](NC(=O)[C@@H](N)CC(=O)O)C(=O)N[C@@H](CC(C)C)C(=O)NCC(=O)N[C@@H](C)C(=O)N[C@@H](CCSC)C(=O)N[C@@H](CCCNC(=N)N)C(=O)N[C@@H](CCCCN)C(=O)N2)NC(=O)[C@H](CSSC[C@@H](C(=O)N[C@@H](C)C(=O)N[C@@H](Cc2ccc(O)cc2)C(=O)N[C@H](C(=O)N[C@@H](Cc2ccccc2)C(N)=O)C(C)C)NC(=O)[C@H](Cc2c[nH]c4ccccc24)NC(=O)[C@H](CCCCN)NC(=O)[C@H](Cc2c[nH]cn2)NC(=O)[C@H]([C@@H](C)O)NC(=O)[C@H](CCCNC(=N)N)NC(=O)[C@H](CO)NC3=O)NC(=O)[C@H](CCCCN)NC(=O)[C@H](CC(=O)O)NC(=O)[C@H](CC(N)=O)NC(=O)[C@H](CC(=O)O)NC(=O)[C@@H]2CCCN2C1=O [compound 433] (H-DCLGAMRKCIPDNDKCCRPNLVCSRTHKWCAYVF-NH2; disulfide 2-17, 9-23, 16-30) | > 5 µM | > 5 µM | > 5 µM |
| CC[C@H](C)[C@@H]1NC(=O)[C@@H]2CSSC[C@@H]3NC(=O)[C@H](C(C)C)NC(=O)[C@H](CC(C)C)NC(=O)[C@H](CC(N)=O)NC(=O)[C@@H]4CCCN4C(=O)[C@H](CCCNC(=N)N)NC(=O)[C@H](CSSC[C@H](NC(=O)[C@@H](N)CC(=O)O)C(=O)N[C@@H](CC(C)C)C(=O)NCC(=O)N[C@@H](C)C(=O)N[C@@H](CCSC)C(=O)N[C@@H](CCCNC(=N)N)C(=O)N[C@@H](CCCCN)C(=O)N2)NC(=O)[C@H](CSSC[C@@H](C(=O)N[C@@H](CCCCN)C(=O)N[C@@H](Cc2ccc(O)cc2)C(=O)N[C@H](C(=O)N[C@@H](Cc2ccccc2)C(N)=O)C(C)C)NC(=O)[C@H](C)NC(=O)[C@H](CCCCN)NC(=O)[C@H](Cc2c[nH]cn2)NC(=O)[C@H]([C@@H](C)O)NC(=O)[C@H](CCCNC(=N)N)NC(=O)[C@H](CO)NC3=O)NC(=O)[C@H](CCCCN)NC(=O)[C@H](CC(=O)O)NC(=O)[C@H](CC(N)=O)NC(=O)[C@H](CC(=O)O)NC(=O)[C@@H]2CCCN2C1=O [compound 434] (H-DCLGAMRKCIPDNDKCCRPNLVCSRTHKACKYVF-NH2; disulfide 2-17, 9-23, 16-30) | > 5 µM | > 5 µM | > 5 µM |
| CC[C@H](C)[C@@H]1NC(=O)[C@@H]2CSSC[C@@H]3NC(=O)[C@H](C(C)C)NC(=O)[C@H](CC(C)C)NC(=O)[C@H](CC(N)=O)NC(=O)[C@@H]4CCCN4C(=O)[C@H](CCCNC(=N)N)NC(=O)[C@H](CSSC[C@H](NC(=O)[C@@H](N)CC(=O)O)C(=O)N[C@@H](CC(C)C)C(=O)NCC(=O)N[C@@H](C)C(=O)N[C@@H](CCSC)C(=O)N[C@@H](CCCNC(=N)N)C(=O)N[C@@H](CCCCN)C(=O)N2)NC(=O)[C@H](CSSC[C@@H](C(=O)N[C@@H](CCCCN)C(=O)N[C@@H](Cc2ccc(O)cc2)C(=O)N[C@H](C(=O)N[C@@H](Cc2ccccc2)C(N)=O)C(C)C)NC(=O)[C@H](Cc2c[nH]c4ccccc24)NC(=O)[C@H](CCC(=O)O)NC(=O)[C@H](Cc2c[nH]cn2)NC(=O)[C@H]([C@@H](C)O)NC(=O)[C@H](CCCNC(=N)N)NC(=O)[C@H](CO)NC3=O)NC(=O)[C@H](CCCCN)NC(=O)[C@H](CC(=O)O)NC(=O)[C@H](CC(N)=O)NC(=O)[C@H](CC(=O)O)NC(=O)[C@@H]2CCCN2C1=O [compound 435] | > 5 µM | 3.66 µM | > 5 µM |
| CC[C@H](C)[C@@H]1NC(=O)[C@@H]2CSSC[C@@H]3NC(=O)[C@H](C(C)C)NC(=O)[C@H](CC(C)C)NC(=O)[C@H](CC(N)=O)NC(=O)[C@@H]4CCCN4C(=O)[C@H](CCCNC(=N)N)NC(=O)[C@H](CSSC[C@H](NC(=O)[C@@H](N)CC(=O)O)C(=O)N[C@@H](CC(C)C)C(=O)NCC(=O)N[C@@H](C)C(=O)N[C@@H](CCSC)C(=O)N[C@@H](CCC(=O)O)C(=O)N[C@@H](CCCCN)C(=O)N2)NC(=O)[C@H](CSSC[C@@H](C(=O)N[C@@H](CCCCN)C(=O)N[C@@H](Cc2ccc(O)cc2)C(=O)N[C@H](C(=O)N[C@@H](Cc2ccccc2)C(N)=O)C(C)C)NC(=O)[C@H](Cc2c[nH]c4ccccc24)NC(=O)[C@H](CCCCN)NC(=O)[C@H](Cc2c[nH]cn2)NC(=O)[C@H]([C@@H](C)O)NC(=O)[C@H](CCCNC(=N)N)NC(=O)[C@H](CO)NC3=O)NC(=O)[C@H](CCCCN)NC(=O)[C@H](CC(=O)O)NC(=O)[C@H](CC(N)=O)NC(=O)[C@H](CC(=O)O)NC(=O)[C@@H]2CCCN2C1=O [compound 436] (H-DCLGAMEKCIPDNDKCCRPNLVCSRTHKWCKYVF-NH2; disulfide 2-17, 9-23, 16-30) | > 5 µM | > 5 µM | > 5 µM |
| CC[C@H](C)[C@@H]1NC(=O)[C@@H]2CSSC[C@@H]3NC(=O)[C@H](C(C)C)NC(=O)[C@H](CC(C)C)NC(=O)[C@H](CC(N)=O)NC(=O)[C@@H]4CCCN4C(=O)[C@H](CCCNC(=N)N)NC(=O)[C@H](CSSC[C@H](NC(=O)[C@@H](N)CC(=O)O)C(=O)N[C@@H](CC(C)C)C(=O)NCC(=O)N[C@@H](C)C(=O)N[C@@H](CCSC)C(=O)N[C@@H](CCCNC(=N)N)C(=O)N[C@@H](CCCCN)C(=O)N2)NC(=O)[C@H](CSSC[C@@H](C(=O)N[C@@H](CCCCN)C(=O)N[C@@H](Cc2ccc(O)cc2)C(=O)N[C@H](C(=O)N[C@@H](Cc2ccccc2)C(N)=O)C(C)C)NC(=O)[C@H](CCC(=O)O)NC(=O)[C@H](CCCCN)NC(=O)[C@H](Cc2c[nH]cn2)NC(=O)[C@H]([C@@H](C)O)NC(=O)[C@H](CCCNC(=N)N)NC(=O)[C@H](CO)NC3=O)NC(=O)[C@H](CCCCN)NC(=O)[C@H](CC(=O)O)NC(=O)[C@H](CC(N)=O)NC(=O)[C@H](CC(=O)O)NC(=O)[C@@H]2CCCN2C1=O [compound 437] (H-DCLGAMRKCIPDNDKCCRPNLVCSRTHKECKYVF-NH2; disulfide 2-17, 9-23, 16-30) | 11.9 µM | 9.26 µM | 6.09 µM |
| CC[C@H](C)[C@@H]1NC(=O)[C@@H]2CSSC[C@@H]3NC(=O)[C@H](C(C)C)NC(=O)[C@H](CC(C)C)NC(=O)[C@H](CC(N)=O)NC(=O)[C@@H]4CCCN4C(=O)[C@H](CCCNC(=N)N)NC(=O)[C@H](CSSC[C@H](NC(=O)[C@@H](N)CC(=O)O)C(=O)N[C@@H](CC(C)C)C(=O)NCC(=O)N[C@@H](C)C(=O)N[C@@H](CCSC)C(=O)N[C@@H](CCCNC(=N)N)C(=O)N[C@@H](CCCCN)C(=O)N2)NC(=O)[C@H](CSSC[C@@H](C(=O)N[C@@H](CCCCN)C(=O)N[C@@H](Cc2ccc(O)cc2)C(=O)N[C@H](C(=O)N[C@@H](Cc2ccccc2)C(N)=O)C(C)C)NC(=O)[C@H](Cc2c[nH]c4ccccc24)NC(=O)[C@H](CCCCN)NC(=O)[C@H](Cc2c[nH]cn2)NC(=O)[C@H]([C@@H](C)O)NC(=O)[C@H](CCC(=O)O)NC(=O)[C@H](CO)NC3=O)NC(=O)[C@H](CCCCN)NC(=O)[C@H](CC(=O)O)NC(=O)[C@H](CC(N)=O)NC(=O)[C@H](CC(=O)O)NC(=O)[C@@H]2CCCN2C1=O [compound 438] | 5.5 µM | 18.2 µM | 5.95 µM |
| CC[C@H](C)[C@@H]1NC(=O)[C@@H]2CSSC[C@@H]3NC(=O)[C@H](C(C)C)NC(=O)[C@H](CC(C)C)NC(=O)[C@H](CC(N)=O)NC(=O)[C@@H]4CCCN4C(=O)[C@H](CCCNC(=N)N)NC(=O)[C@H](CSSC[C@H](NC(=O)[C@@H](N)CC(=O)O)C(=O)N[C@@H](CC(C)C)C(=O)NCC(=O)N[C@@H](C)C(=O)N[C@@H](CCSC)C(=O)N[C@@H](CCCNC(=N)N)C(=O)N[C@@H](CCCCN)C(=O)N2)NC(=O)[C@H](CSSC[C@@H](C(=O)N[C@@H](CCCCN)C(=O)N[C@@H](Cc2ccc(O)cc2)C(=O)N[C@H](C(=O)N[C@@H](Cc2ccccc2)C(N)=O)C(C)C)NC(=O)[C@H](Cc2c[nH]c4ccccc24)NC(=O)[C@H](CCCCN)NC(=O)[C@H](Cc2c[nH]cn2)NC(=O)[C@H]([C@@H](C)O)NC(=O)[C@H](CCCNC(=N)N)NC(=O)[C@H](CO)NC3=O)NC(=O)[C@H](CCC(=O)O)NC(=O)[C@H](CC(=O)O)NC(=O)[C@H](CC(N)=O)NC(=O)[C@H](CC(=O)O)NC(=O)[C@@H]2CCCN2C1=O [compound 439] (H-DCLGAMRKCIPDNDECCRPNLVCSRTHKWCKYVF-NH2; disulfide 2-17, 9-23, 16-30) | 2.41 µM | 10.8 µM | 4.8 µM |
